Assay results published in patent US8853258B2, “C-linked hydroxamic acid derivatives useful as antibacterial agents” (Pfizer Inc., priority 2009, dated 2014).
In brackets after ≈: the same amount, converted by molar mass. Like-named read-outs stand apart in the source and are kept apart here.

Experiments:
Format in all cases: cell-based
[1] = test system: Pseudomonas aeruginosa UI-18: Wild-type (PA-7); assay: MIC determination (CLSI), PA-7; conditions: for MIC: Pseudomonas aeruginosa; for PA-7 MIC: Pseudomonas aeruginosa UI-18 wild-type PA-7
Procedure: (§1) The in vitro antibacterial activity of compounds described in the Examples was evaluated by minimum inhibitory concentration (MIC) testing according to Clinical and Laboratory Standards Institute (CLSI, formerly NCCLS) guidelines. See: Clinical and Laboratory Standards Institute. Methods for Dilution Antimicrobial Susceptibility Tests for Bacteria that Grow Aerobically; Approved Standard-Seventh Edition. CLSI document M7-A7 [ISBN 1-56238-587-9]. Clinical and Laboratory Standards Institute, 940 West Valley Road, Suite 1400, Wayne, Pa. 19087-1898 USA, 2006; also Clinical and Laboratory Standards Institute. Performance Standards for Antimicrobial Susceptibility Testing; Eighteenth Informational Supplement. CLSI document M100-S18 [ISBN1-56238-653-0]. Clinical and Laboratory Standards Institute.
(§2) The following bacterial strains were used in these MIC determinations:
1) Pseudomonas aeruginosa UI-18: Wild-type, labeled as PA-7 in Tables 1, 2 and 3;

[2] = test system: Acinetobacter baumanii/haemolyticus: Multidrug-resistant clinical isolate (AB-3167); assay: MIC determination (CLSI), AB-3167; conditions: for MIC: Acinetobacter baumannii; for AB-3167 MIC: Acinetobacter baumanii/haemolyticus multidrug-resistant clinical isolate AB-3167
Procedure: as §1, §2
2) Acinetobacter baumanii/haemolyticus: Multidrug-resistant clinical isolate labeled as AB-3167 in Tables 1, 2 and 3;

[3] = test system: Escherichia coli EC-1: VOGEL, mouse virulent; assay: MIC determination (CLSI), EC-1; conditions: for MIC: Escherichia coli; for EC-1 MIC: Escherichia coli EC-1 VOGEL, mouse virulent
Procedure: as §1, §2
3) Escherichia coli EC-1: VOGEL, mouse virulent labeled as EC-1 in Tables 1, 2 and 3;

[4] = test system: Klebsiella pneumoniae: Ciprofloxacin-resistant isolate, ESBL, clinical isolate (KP-3700); assay: MIC determination (CLSI), KP-3700
Procedure: as §1, §2
4) Klebsiella pneumoniae: Ciprofloxacin-resistant isolate, expresses extended-spectrum beta-lactamases (ESBL), clinical isolate, labeled as KP-3700 in Tables 1, 2, and 3.

Row | Structure (SMILES) | MIC ([1]; Table 3, read-out: PA-7 MIC) | MIC ([2]; Table 3, read-out: AB-3167 MIC) | MIC ([3]; read-out: EC-1 MIC) | KP-3700 MIC [4] | PA-7 MIC [1] | AB-3167 MIC [2] | EC-1 MIC [3] | MIC ([1]; Table 1, MIC, read-out: PA-7 (MIC)) | MIC ([2]; Table 1, MIC, read-out: AB-3167 (MIC)) | MIC ([3]; read-out: EC-1: (MIC))
1 | CC(CCc1ccc(OCc2nc(-c3cccc(F)c3)no2)cc1)(C(=O)NO)S(C)(=O)=O (centres unmarked) [Example 241, 4-(4-{[3-(3-fluorophenyl)-1,2,4-oxadiazol-5-yl]methoxy}phenyl)-N-hydroxy-2-methyl-2-(methylsulfonyl)butanamide] | 32 mg/L (≈ 69 µM) | 16 mg/L (≈ 34.5 µM) | 8 mg/L (≈ 17.3 µM) | ≧64 mg/L | – | – | – | – | – | –
2 | CC(C)c1cccc(-c2ccc(CCC(C)(C(=O)NO)S(C)(=O)=O)cc2)c1 (centres unmarked) [Example 43] | – | – | – | 16 mg/L | 8 mg/L | 4 mg/L | 4 mg/L | – | – | –
3 | Cc1ncccc1COc1ccc(CCC(C)(C(=O)NO)S(C)(=O)=O)cc1 (centres unmarked) [Example 245, N-hydroxy-2-methyl-4-{4-[(2-methylpyridin-3-yl)methoxy]phenyl}-2-(methylsulfonyl)butanamide] | 32 mg/L (≈ 81.5 µM) | ≥ 64 mg/L | ≥ 64 mg/L | ≧64 mg/L | – | – | – | – | – | –
4 | CC(CCc1ccc(-c2ccc(F)cc2)cn1)(C(=O)NO)S(C)(=O)=O (centres unmarked) [Example 164] | – | – | – | 32 mg/L | 4 mg/L | ≧64 mg/L | 32 mg/L | – | – | –
5 | COc1cc(O)ccc1-c1ccc(CCC(C)(C(=O)NO)S(C)(=O)=O)cc1 (centres unmarked) [Example 141] | – | – | – | ≧64 mg/L | 32 mg/L | ≧64 mg/L | ≧64 mg/L | – | – | –
6 | CC(CCc1ccc(OCc2nc(-c3cccc(F)c3F)no2)cc1)(C(=O)NO)S(C)(=O)=O (centres unmarked) [Example 253, 4-(4-{[3-(2,3-difluorophenyl)-1,2,4-oxadiazol-5-yl]methoxy}phenyl)-N-hydroxy-2-methyl-2-(methylsulfonyl)butanamide] | 32 mg/L (≈ 66.5 µM) | ≥ 64 mg/L | 8 mg/L (≈ 16.6 µM) | ≧64 mg/L | – | – | – | – | – | –
7 | CC(CCc1ccc(OCCCOCc2ccccc2)cc1)(C(=O)NO)S(C)(=O)=O (centres unmarked) [Example 243, 4-{4-[3-(benzyloxy)propoxy]phenyl}-N-hydroxy-2-methyl-2-(methylsulfonyl)butanamide] | ≥ 64 mg/L | 32 mg/L (≈ 73.5 µM) | 32 mg/L (≈ 73.5 µM) | ≧64 mg/L | – | – | – | – | – | –
8 | CC(CCc1ccc(-c2ccc(OCCO)c(F)c2)cc1)(C(=O)NO)S(C)(=O)=O (centres unmarked) [Example 145] | – | – | – | 4 mg/L | 1 mg/L | ≧64 mg/L | 2 mg/L | – | – | –
9 | CSc1ccc(-c2ccc(CCC(C)(C(=O)NO)S(C)(=O)=O)cc2)cc1 (centres unmarked) [Example 40] | – | – | – | 2 mg/L | 2 mg/L | 16 mg/L | 0.5 mg/L | – | – | –
10 | CC(C)CCCOc1ccc(CCC(C)(C(=O)NO)S(C)(=O)=O)cc1 (centres unmarked) [Example 267, N-hydroxy-2-methyl-4-{4-[(4-methylpentyl)oxy]phenyl}-2-(methylsulfonyl)butanamide] | 16 mg/L (≈ 43.1 µM) | 8 mg/L (≈ 21.5 µM) | 8 mg/L (≈ 21.5 µM) | ≧64 mg/L | – | – | – | – | – | –
11 | Cc1cc(O)ccc1-c1ccc(CCC(C)(C(=O)NO)S(C)(=O)=O)cc1 (centres unmarked) [Example 140] | – | – | – | ≧64 mg/L | 4 mg/L | ≧64 mg/L | 32 mg/L | – | – | –
12 | CC(CCc1ccc(-c2ccc(F)cc2F)cc1)(C(=O)NO)S(C)(=O)=O (racemic) [Example 53] | – | – | – | 4 mg/L | 0.5 mg/L | 8 mg/L | 1 mg/L | – | – | –
13 | CCCCOc1ccc(CCC(C)(C(=O)NO)S(C)(=O)=O)cc1 (centres unmarked) [Example 236, 4-(4-butoxyphenyl)-N-hydroxy-2-methyl-2-(methylsulfonyl)butanamide] | 8 mg/L (≈ 23.3 µM) | 32 mg/L (≈ 93.2 µM) | 16 mg/L (≈ 46.6 µM) | ≧64 mg/L | – | – | – | – | – | –
14 | CC(CCc1ccc(OCCC2CC2)cc1)(C(=O)NO)S(C)(=O)=O (racemic) [Example 17, (+/−)-4-[4-(2-Cyclopropylethoxy)phenyl]-N-hydroxy-2-methyl-2-(methylsulfonyl)butanamide] | – | – | – | ≧64 mg/L | – | – | – | 8 mg/L (≈ 22.5 µM) | 32 mg/L (≈ 90 µM) | 32 mg/L (≈ 90 µM)
15 | COc1ccc(-c2ccc(CCC(C)(C(=O)NO)S(C)(=O)=O)cc2)cn1 (racemic) [Example 72] | – | – | – | 32 mg/L | 4 mg/L | ≧64 mg/L | 8 mg/L | – | – | –
16 | CC(CCc1ccc(-c2ccc(OCCO)cc2F)cc1)(C(=O)NO)S(C)(=O)=O (centres unmarked) [Example 144] | – | – | – | 4 mg/L | 1 mg/L | ≧64 mg/L | 1 mg/L | – | – | –
17 | Cc1cc(-c2ccc(CCC(C)(C(=O)NO)S(C)(=O)=O)cc2)ccc1O (centres unmarked) [Example 137] | – | – | – | 32 mg/L | 4 mg/L | ≧64 mg/L | 16 mg/L | – | – | –
